# Columns and labels:
# [1] = biological target: alpha-L-fucosidase (Bos taurus); assay: The compound was tested for the inhibitory activity against alpha-L-Fucosidase in bovine kidney
# [2] = biological target: alpha-L-fucosidase (Bos taurus); assay: as above; remark: listed apart in the source
Ki [1],Ki [2],SMILES
2800 nM,3000 nM,"CC1CC(O)(CN)C(O)C(O)C1O (stereo not drawn) [1-Aminomethyl-5-methyl-cyclohexane-1,2,3,4-tetraol]"
45000 nM,,"CC1=CC(N)C(O)C(O)C1O (stereo not drawn) [6-Amino-4-methyl-cyclohex-4-ene-1,2,3-triol]"
